Assay results from US20160010154A1, “SCREENING ASSAYS FOR THERAPEUTICS FOR PARKINSON'S DISEASE” (THE PARKINSON'S INSTITUTE, priority 2012, published 2016).

Legend:
[1] = tested on: LRRK2 G2019S mutant and ZFN-corrected NPCs; assay: ROS production by CM-H2DCFDA fluorescence, flow cytometry; format: cell-based, human; conditions: 200 μM for 60 min, normal growth conditions, both cell lines
Method: Cells were assayed for free radical production using CM-H2DCFDA that can be oxidized and rendered fluorescent by hydroxyl radicals produced by mitochondria. See, e.g., Petronilli et al. (1999) Biophysical journal 76:725-734; Nicholls (2009) Biochimica et biophysica acta 1787:1416-1424. Cytoplasmic fluorescence of this indicator dye in viable cells was assayed by flow cytometry to obtain a signature for cellular oxidative stress.
In particular, for stress experiments, NPCs were seeded 24 hours before being cultured under the following selective media conditions for an additional 18 hours: Standard NPC growth medium as above (HG=high glucose), HG plus 20 μM rotenone (HG+R) (SIGMA # R-8875) or an NPC growth medium formulation based on HG medium without glucose (NG, Life Techn. Neurobasal-A, Formula 05-0128DJ).
For flow cytometry, NPCs were seeded at 80% confluence on either 24-well (1-2×10^5 cells) or 48 well plates (5×10^4 cells) (NUNC #s 142475, 150687) on Geltrex (100 ug/ml protein) coated plates 24 hours before the experiment and then challenged as described above. In general two replicate wells were analyzed in each experimental run. After the respective treatment, cells were sampled by flow cytometry with an Accuri™ C6 cytometer with C-Sampler™ (BD Accuri) and subsequently analyzed using the Cflow® analysis software. […]

[2] = tested on: LRRK2 mutant and ZFN-corrected NPCs; assay: Mitochondrial calcein retention (MTP opening), HCI microscopy; format: cell-based, human; conditions: rotenone stress, corrected and LRRK2 mutant lines
Method: Cells grown on high glucose (HG) with or without 20 uM rotenone (R) or with radical generator TBHP (200 uM). Cells were analyzed by flow cytometry and mean CM-DCFDA fluorescence (Ex./Em. 495/529 nm) of live cells was then normalized to number of viable cells. […] Images: Depicted are representative image overlays showing mitochondrial fluorescence patterns indicative of mitochondrial membrane potential for the corrected (1.7) and uncorrected (1.13) NPCs. […] Mitochondria were loaded with calcein AM and cytosolic fluorescence was quenched by CoCl2. Graph: Relative amount of mitochondrial localized calcein fluorescence identified by Mitotracker™ Red CMXROS co-localization was normalized to cell number. Images: Representative image overlays showing mitochondrial fluorescence patterns indicative of mitochondrial calcein retention and mitochondrial integrity in corrected (1.7) and uncorrected (1.13) NPCs. FIG. 4D is a graph showing HCI analysis of caspase 3/7 activation in LRRK2 NPCs measured by fluorescence activated by caspase 3/7 mediated cleavage of a DEVD peptide-DNA dye conjugate. NPCs were incubated with the caspase substrate and the % of caspase substrate fluorescence positive cells (identified by nuclear Hoechst 33342 counterstain) was determined from 4 sites acquired at 10× magnification. […]

`CC(C)(C)OO` [TBHP] was tested, and the “ROS response to radical generator” value [1] was “increase of ROS”.
For `C=C(C)[C@H]1Cc2c(ccc3c2O[C@@H]2COc4cc(OC)c(OC)cc4[C@@H]2C3=O)O1` [rotenone], the mitochondrial calcein loading [2] was “increased mitochondrial calcein loading”.
